Source: patent US12071671B2 (priority 2018, dated 2024)
Where two headings read alike, the source gives them in different places.

Columns and labels:
[1] = tested on: CD138+ cells from patients (primary myeloma cells); assay: Primary CD138+ myeloma cells from patient bone marrow samples, flow cytometry with anti-CD138 APC antibody after 5 days; format: cell-based, human; conditions: 5 mM GSH with 10, 20 and 30 μM Melphalan, n=10 patients, p<0.05
Protocol: After 5 days the percentage and absolute number of CD138^+ cells was assessed by flow cytometry using an anti-CD138 APC antibody. * indicates a significant difference using a Student test for pairs (P≤0.05).

[2] = tested on: HMCLs with the low AOX/ROS risk signatures (JJN3, XG-6, XG-19, XG-20, XG-24); assay: HMCL viability, Cell Titer Glo assay, IC50 at 96h (low AOX/ROS risk signature lines); format: cell-based, human; conditions: for IC50: Homo sapiens; for fold higher sensitivity of low AOX/ROS HMCLs as compared to high AOX/ROS HMCLs: ratio of median IC50 at 96h, p<0.003
Protocol: (§1) The HMCLs XG-6, XG-19, XG-20, XG24, JJN3, AMO1, LP1, L363, OPM2 and RPMI8226 were grown in RPMI-1640 supplemented with 10% FBS. XG-6, XG-19, XG-20, XG-24, and LP1 media was supplemented with 2 ng/mL recombinant IL-6. Cells were plated in 96-well plate in 200 μL complete medium. After 24h, cells were treated with increasing concentrations of Melphalan (European Pharmacopeia Reference-Standards, France) or Bortezomib (Axon, Medchem, France) and at day 4 post treatment, the viable cells were assessed using Cell Titer Glo assay (Promega, Madison, WI). The IC50 at 96h were determined using GraphPad Prism software.
(§2) Considering the GEP of 40 HMCLs (Moreaux et al., 2011), HMCLs AOX and ROS risk signatures were determined. The 5 HMCLs with the highest (AMO1, L363, LP1, OPM2, RPMI8266) and the lowest (JJN3, XG-6, XG-19, XG-20, XG-24) AOX/ROS scores were selected to assay Melphalan and Bortezomib sensitivities (Moreaux et al., 2012 and Moreaux et al., 2013).

[3] = tested on: HMCLs with high AOX/ROS risk signatures (AMO1, L363, LP1, OPM2, RPMI8266); assay: HMCL viability, Cell Titer Glo assay, IC50 at 96h (high AOX/ROS risk signature lines); format: cell-based; conditions: Homo sapiens
Protocol: as §1, §2

| SMILES | protection of primary myeloma cells from melphalan induced apoptosis [1] | IC50 ([2]; JJN-3, 96 h, read-out: IC50 range) | IC50 ([2]; JJN-3, 96 h, read-out: Median IC50) | fold higher sensitivity of low AOX/ROS HMCLs as compared to high AOX/ROS HMCLs [2] | IC50 ([3]; read-out: IC50 range) | IC50 ([3]; read-out: Median IC50) | IC50 ([2]; JJN-3, low AOX/ROS HMCLs, 96h, median over 5 cell lines, read-out: Median IC50) | IC50 ([2]; JJN-3, low AOX/ROS HMCLs, 96h, range over 5 cell lines, read-out: IC50 range) |
| --- | --- | --- | --- | --- | --- | --- | --- | --- |
| N[C@@H](CCC(=O)N[C@@H](CS)C(=O)NCC(=O)O)C(=O)O [GSH, glutathione] | significantly protect |  |  |  |  |  |  |  |
| N[C@@H](Cc1ccc(N(CCCl)CCCl)cc1)C(=O)O [Melphalan] |  | 2.25 to 8.34 µM | 3.11 µM | 4 fold | 9.02 to 18.7 µM | 13.7 µM |  |  |
| CC(C)C[C@H](NC(=O)[C@H](Cc1ccccc1)NC(=O)c1cnccn1)B(O)O [Bortezomib] |  |  |  | 3.5 fold |  |  | 0.00051 µM | 0.00027 to 0.00085 µM |
